Source: patent publication US9975888B2, “Aryl linked imidazole and triazole derivatives and methods of use thereof for improving the pharmacokinetics of a drug” (MERCK SHARP & DOHME CORP., priority 2013, dated 2018)

Columns and labels:
Format in all cases: biochemical
CYP2C19 = target: T1, CYP2C19 (Homo sapiens, UniProt P33261); experiment: Cocktail assay for CYPs, mephenytoin 4′-hydroxylation (CYP2C19), human liver microsomes; details: 30 μM mephenytoin, 0.1 mg/mL human liver microsomes, 10 min at 37° C.; read-out: CYP IC50 (nM) 2C19
T1 construct: 0.1 mg/mL protein human liver microsomes (BD Gentest); tissue BD Gentest; host or cells: human liver microsomes
T1 sequence (P33261 whole entry): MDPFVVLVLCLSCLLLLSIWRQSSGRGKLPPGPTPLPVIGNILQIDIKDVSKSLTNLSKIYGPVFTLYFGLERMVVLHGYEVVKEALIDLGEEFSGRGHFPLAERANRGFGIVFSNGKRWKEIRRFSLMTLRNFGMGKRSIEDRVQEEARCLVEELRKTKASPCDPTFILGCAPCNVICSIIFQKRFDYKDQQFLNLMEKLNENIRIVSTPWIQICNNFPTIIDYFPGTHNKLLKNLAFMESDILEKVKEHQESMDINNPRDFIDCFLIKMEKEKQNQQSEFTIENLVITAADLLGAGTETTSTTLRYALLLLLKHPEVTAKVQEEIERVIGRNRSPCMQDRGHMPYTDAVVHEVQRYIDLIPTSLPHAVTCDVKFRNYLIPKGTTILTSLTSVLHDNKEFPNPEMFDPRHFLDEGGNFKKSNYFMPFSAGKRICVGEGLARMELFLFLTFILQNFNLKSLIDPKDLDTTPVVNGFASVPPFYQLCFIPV
Procedure, shortened: (§1)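 Pooled human liver microsomes (0.1 mg/mL) with probe cocktail incl. 5 μM diclofenac (CYP2C9) and 30 μM mephenytoin (CYP2C19), 1 mM NADPH, pH 7.4 phosphate buffer, 10 min at 37° C. Metabolites quantified by LC/MS/MS against internal standard; % inhibition versus no-inhibitor control, IC50 by non-linear regression.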

CYP1A2 = target: T2, CYP1A2 (Homo sapiens, UniProt P05177); experiment: Cocktail assay for CYPs, phenacetin O-deethylation (CYP1A2), human liver microsomes; details: 10 μM phenacetin, 0.1 mg/mL human liver microsomes, 10 min at 37° C.; read-out: CYP IC50 (nM) 1A2
T2 construct: 0.1 mg/mL protein human liver microsomes (BD Gentest); tissue BD Gentest; host or cells: human liver microsomes
T2 sequence (P05177 1-516): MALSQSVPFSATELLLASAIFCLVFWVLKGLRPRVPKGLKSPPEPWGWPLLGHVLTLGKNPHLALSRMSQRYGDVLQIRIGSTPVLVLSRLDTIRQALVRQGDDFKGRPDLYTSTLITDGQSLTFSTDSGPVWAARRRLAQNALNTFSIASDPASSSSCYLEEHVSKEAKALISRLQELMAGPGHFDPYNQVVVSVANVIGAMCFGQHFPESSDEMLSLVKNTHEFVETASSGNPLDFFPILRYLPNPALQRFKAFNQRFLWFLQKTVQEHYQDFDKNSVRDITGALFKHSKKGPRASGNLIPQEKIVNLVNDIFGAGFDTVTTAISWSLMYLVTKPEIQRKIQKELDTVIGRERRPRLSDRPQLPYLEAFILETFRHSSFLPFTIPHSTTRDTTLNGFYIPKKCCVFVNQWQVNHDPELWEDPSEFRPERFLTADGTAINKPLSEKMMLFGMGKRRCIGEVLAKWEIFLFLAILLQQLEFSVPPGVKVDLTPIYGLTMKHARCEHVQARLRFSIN
Procedure, shortened: (§2)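 Pooled human liver microsomes (0.1 mg/mL) with a probe cocktail of 10 μM phenacetin, 5 μM dextromethorphan and 2 μM midazolam plus NADPH, pH 7.4, 10 min at 37° C. Each metabolite was quantified by LC/MS/MS against a tolbutamide internal standard. IC50 came from % inhibition at 6 concentrations (e.g. 0.0032–10 μM) by non-linear regression.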

CYP2C9 = target: T3, CYP2C9 (Homo sapiens, UniProt P11712); experiment: Cocktail assay for CYPs, diclofenac 4′-hydroxylation (CYP2C9), human liver microsomes; details: 5 μM diclofenac, 0.1 mg/mL human liver microsomes, 10 min at 37° C.; read-out: CYP IC50 (nM) 2C9
T3 construct: 0.1 mg/mL protein human liver microsomes (BD Gentest); tissue BD Gentest; host or cells: human liver microsomes
T3 sequence (P11712 whole entry): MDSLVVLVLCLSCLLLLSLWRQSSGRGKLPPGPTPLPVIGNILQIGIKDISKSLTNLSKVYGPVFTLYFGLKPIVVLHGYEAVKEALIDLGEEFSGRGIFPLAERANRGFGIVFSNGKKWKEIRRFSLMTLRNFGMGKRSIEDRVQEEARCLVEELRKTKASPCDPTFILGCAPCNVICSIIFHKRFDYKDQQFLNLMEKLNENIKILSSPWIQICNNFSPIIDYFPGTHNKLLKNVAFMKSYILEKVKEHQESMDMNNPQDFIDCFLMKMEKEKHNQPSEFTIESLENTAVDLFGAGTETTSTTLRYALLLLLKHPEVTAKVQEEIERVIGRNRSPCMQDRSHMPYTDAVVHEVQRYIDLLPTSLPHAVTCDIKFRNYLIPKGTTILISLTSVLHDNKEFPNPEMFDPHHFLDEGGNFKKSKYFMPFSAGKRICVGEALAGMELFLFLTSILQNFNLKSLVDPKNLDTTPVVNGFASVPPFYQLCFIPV
Procedure, shortened: as §1

CYP3A4 [1] = target: T4, CYP3A4 (Homo sapiens, UniProt P08684); experiment: IC50 vs CYP3A by inhibition of lopinavir metabolism in human liver microsomes; parameters: 0.01 mg/mL protein human liver microsomes (BD Gentest); tissue BD Gentest; host or cells: human liver microsomes; details: 1.5 μM lopinavir, 0.01 mg/mL human liver microsomes, 8 min at 37° C.; read-out: CYP IC50 (nM) 3A4 (LPV)
Procedure, shortened: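 Human liver microsomes (0.01 mg/mL) with 1.5 μM lopinavir, 1 mM NADPH, 3.3 mM MgCl2 in 100 mM potassium phosphate pH 7.4, 8 min at 37 °C, six compound concentrations. Summed M2/M3/M4 hydroxy metabolites quantified by LC/MS/MS against tolbutamide; % inhibition normalised between no-inhibitor and 5 μM ketoconazole controls, IC50 by non-linear regression.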
Target sequence in this assay (P08684 2-503): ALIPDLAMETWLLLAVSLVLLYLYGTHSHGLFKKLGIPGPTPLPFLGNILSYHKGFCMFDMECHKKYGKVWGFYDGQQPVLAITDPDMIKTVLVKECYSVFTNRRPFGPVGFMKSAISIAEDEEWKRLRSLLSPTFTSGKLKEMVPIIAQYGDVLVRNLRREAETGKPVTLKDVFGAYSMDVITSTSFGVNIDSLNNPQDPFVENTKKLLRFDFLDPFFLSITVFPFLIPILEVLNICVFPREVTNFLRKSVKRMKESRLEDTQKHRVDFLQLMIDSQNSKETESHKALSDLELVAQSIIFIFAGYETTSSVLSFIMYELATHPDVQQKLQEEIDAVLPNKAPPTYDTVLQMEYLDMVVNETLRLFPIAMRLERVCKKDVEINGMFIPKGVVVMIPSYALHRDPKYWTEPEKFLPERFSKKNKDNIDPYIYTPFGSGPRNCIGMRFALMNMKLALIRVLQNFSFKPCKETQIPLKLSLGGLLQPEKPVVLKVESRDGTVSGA

CYP3A4 [2] = target: T4, CYP3A4; experiment: Cocktail assay for CYPs, midazolam 1′-hydroxylation (CYP3A4), human liver microsomes; parameters: 0.1 mg/mL protein human liver microsomes (BD Gentest); tissue BD Gentest; host or cells: human liver microsomes; details: 2 μM midazolam, 0.1 mg/mL human liver microsomes, 10 min at 37° C.; read-out: CYP IC50 (nM) 3A4 (MDZ)
Procedure, shortened: as §2
Target sequence in this assay (P08684 whole entry): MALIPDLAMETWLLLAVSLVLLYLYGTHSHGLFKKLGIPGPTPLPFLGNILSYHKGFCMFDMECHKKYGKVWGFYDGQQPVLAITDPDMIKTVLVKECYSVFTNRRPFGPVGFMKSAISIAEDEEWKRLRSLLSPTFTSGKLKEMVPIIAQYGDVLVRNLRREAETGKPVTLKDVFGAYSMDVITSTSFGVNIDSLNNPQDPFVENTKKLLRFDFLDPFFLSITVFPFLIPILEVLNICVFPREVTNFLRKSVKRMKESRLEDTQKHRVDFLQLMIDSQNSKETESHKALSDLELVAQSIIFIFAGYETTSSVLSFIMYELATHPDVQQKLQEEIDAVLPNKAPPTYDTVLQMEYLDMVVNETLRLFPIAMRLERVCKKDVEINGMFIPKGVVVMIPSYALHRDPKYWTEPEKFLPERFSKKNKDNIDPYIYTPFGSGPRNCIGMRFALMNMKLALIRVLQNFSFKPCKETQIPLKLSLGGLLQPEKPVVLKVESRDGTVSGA

CYP2D6 = target: T5, CYP2D6 (Homo sapiens, UniProt P10635); experiment: Cocktail assay for CYPs, dextromethorphan O-demethylation (CYP2D6), human liver microsomes; details: 5 μM dextromethorphan, 0.1 mg/mL human liver microsomes, 10 min at 37° C.; read-out: CYP IC50 (nM) 2D6
T5 construct: 0.1 mg/mL protein human liver microsomes (BD Gentest); tissue BD Gentest; host or cells: human liver microsomes
T5 sequence (P10635 whole entry): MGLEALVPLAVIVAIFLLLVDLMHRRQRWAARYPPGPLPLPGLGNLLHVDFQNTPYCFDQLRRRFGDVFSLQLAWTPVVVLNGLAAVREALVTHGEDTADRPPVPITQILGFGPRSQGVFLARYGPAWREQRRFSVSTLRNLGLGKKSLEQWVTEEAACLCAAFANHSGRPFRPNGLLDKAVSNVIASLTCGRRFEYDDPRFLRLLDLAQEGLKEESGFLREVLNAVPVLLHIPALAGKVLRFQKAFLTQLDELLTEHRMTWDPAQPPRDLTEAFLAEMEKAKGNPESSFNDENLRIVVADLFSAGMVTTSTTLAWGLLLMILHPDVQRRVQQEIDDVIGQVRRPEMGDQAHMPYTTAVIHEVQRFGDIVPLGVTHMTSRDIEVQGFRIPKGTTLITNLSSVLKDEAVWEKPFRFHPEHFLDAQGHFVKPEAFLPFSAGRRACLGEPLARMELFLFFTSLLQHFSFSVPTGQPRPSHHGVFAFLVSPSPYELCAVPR
Procedure, shortened: as §2

In the case of C[C@H](c1ccc(F)cc1)n1cncc1-c1cccc2c1CCN(S(=O)(=O)c1cnc(N3CCN4C[C@H](O)C[C@H]4C3)s1)C2 [Compound 63, (7R,8aS)-2-(5-((5-(1-((R)-1-(4-fluorophenyl)ethyl)-1H-imidazol-5-yl)-3,4-dihydroisoquinolin-2(1H)-yl)sulfonyl)thiazol-2-yl)octahydropyrrolo[1,2-a]pyrazin-7-ol], the IC50 (CYP2C19) was 2610 nM, the IC50 (CYP1A2) was 2500 nM and the IC50 (CYP2C9) was 4950 nM. The IC50 (CYP3A4 [1]) was 5 nM, the IC50 (CYP3A4 [2]) was 7.5 nM and the IC50 (CYP2D6) was 3680 nM.
In the case of O=S(=O)(c1cnc(N2CCN3C[C@H](O)C[C@H]3C2)s1)N1CCc2c(cccc2-c2cncn2CCc2ccc(F)cc2)C1 [Compound 64, (7R,8aS)-2-(5-((5-(1-(4-fluorophenethyl)-1H-imidazol-5-yl)-3,4-dihydroisoquinolin-2(1H)-yl)sulfonyl)thiazol-2-yl)octahydro-pyrrolo[1,2-a] pyrazin-7-ol], the IC50 (CYP2C19) was 4230 nM, the IC50 (CYP1A2) was over 10000 nM and the IC50 (CYP2C9) was 3550 nM. For the same molecule, the IC50 (CYP3A4 [1]) was 1.6 nM, the IC50 (CYP3A4 [2]) was 4.7 nM and the IC50 (CYP2D6) was 3130 nM.
With O=S(=O)(c1cnc(N2CCN3C[C@H](O)C[C@H]3C2)s1)N1CCc2cccc(-c3cncn3CCc3ccc(F)cc3)c2C1 [Compound 65, (7R,8aS)-2-(5-((8-(1-(4-fluorophenethyl)-1H-imidazol-5-yl)-3,4-dihydroisoquinolin-2(1H)-yl)sulfonyl)thiazol-2-yl)octahydropyrrolo[1,2-a]pyrazin-7-ol] the IC50 (CYP2C19) was 9230 nM, the IC50 (CYP1A2) was over 10000 nM and the IC50 (CYP2C9) was 1260 nM. For the same molecule, the IC50 (CYP3A4 [1]) was 8.9 nM, the IC50 (CYP3A4 [2]) was 18.5 nM and the IC50 (CYP2D6) was 4900 nM.
With CN1CCN(c2ncc(S(=O)(=O)N3CCc4c(-c5cncn5CCc5ccc(F)cc5)ccnc4C3)s2)CC1 [Compound 66, 5-((4-(1-(4-fluorophenethyl)-1H-imidazol-5-yl)-5,6-dihydro-1,7-naphthyridin-7(8H)-yl)sulfonyl)-2-(4-methylpiperazin-1-yl)thiazole] the IC50 (CYP2C19) was over 10000 nM, the IC50 (CYP1A2) was 2680 nM and the IC50 (CYP2C9) was over 10000 nM. For the same molecule, the IC50 (CYP3A4 [1]) was 23.8 nM, the IC50 (CYP3A4 [2]) was 22.4 nM and the IC50 (CYP2D6) was over 10000 nM.
With CN1CCN(c2ncc(S(=O)(=O)N3CCc4c(ncnc4-c4cncn4CCc4ccc(F)cc4)C3)s2)CC1 [Compound 67, 5-((4-(1-(4-fluorophenethyl)-1H-imidazol-5-yl)-5,6-dihydropyrido[3,4-d]pyrimidin-7(8H)-yl)sulfonyl)-2-(4-methylpiperazin-1-yl)thiazole] the IC50 (CYP2C19) was over 10000 nM, the IC50 (CYP1A2) was over 10000 nM and the IC50 (CYP2C9) was over 10000 nM. For the same molecule, the IC50 (CYP3A4 [1]) was over 100 nM, the IC50 (CYP3A4 [2]) was 123 nM and the IC50 (CYP2D6) was 6510 nM.
